Blank lines part the entries; values can stand above or below the compound they belong to.
Assays:
[1] = In vitro dissolution study (Ph. Eur. Apparatus 2, paddle); type: physicochemical; conditions: 30 mg, 50 mM phosphate buffer pH 6.8, 50 rpm, 37° C.
Protocol: An in vitro dissolution study was performed on pemirolast potassium (obtained Chemtronica AB, Stockholm, Sweden) and pemirolast sodium hemihydrate (prepared in accordance with the method described in Example 10 above) using standard Ph. Eur. Methodology (Apparatus 2 (paddle), Ph. Eur., 2.9.3, using 50 mM phosphate buffer pH 6.8 as a dissolution medium. A stirring rate of 50 rpm was employed. The temperature was 37° C.). Tests were performed in triplicate. 30 mg of each substance was added to separate vessels and the timer started. Sampling was at regular intervals using a 1 mL plastic syringe, depending on how quickly the substance appeared to dissolve (by visual inspection). The sample was filtered into HPLC vials using a small diameter filter. The samples were analysed by reversed phase HPLC. Quantification of pemirolast was performed by means of UV detection.

[2] = Stability study at different moisture levels and temperatures (appearance, Karl Fischer, PXRD); type: physicochemical
Protocol: To determine the relative stability of pemirolast sodium obtained in accordance with the method described in Example 10 (hemihydrate), Example 11 (heptahydrate) and Example 5 (amorphous form) at different moisture levels, a stability study was performed.
The study was performed under four different storage conditions with different moisture levels and temperatures, 40° C./75% RH, 25° C./60% RH, room temperature/10-20% RH, and room temperature/>90% RH. The substances were stored open in glass beakers and samples were withdrawn periodically for analysis (time zero, 1 week and 4 weeks).
At the time intervals mentioned, the visual appearance was inspected by (a) placing a spatula of substance on a white background, munktell filter (no smearing or crushing of the substances was performed), and (b) by microscopy equipped with plane polarized light. The water content was also analysed using Karl Fischer titration. PXRD was conducted at time zero and at 4 weeks.

[3] = PXRD of 30 mg tablets after tabletting; type: physicochemical; conditions: crushed and intact
Protocol: For all tablets, friability and crushing resistance tests were conducted according to standard methodology (Ph. Eur. 6.0, 2.9.7 and 2.9.8, respectively, with the exception that the crushing resistance results are presented in kp rather than N according to the Ph. Eur.). PXRD was also performed on the 30 mg tablets after tabletting on both crushed and intact tablets. In view of the endotherms observed (and reported in Example 11 above) by DSC for the heptahydrate, it was expected that this may limit the ability of that polymorph to form tablets by compression (given that internal temperatures of 70° C. can easily be reached during the compression process). It was therefore decided to analyse the 30 mg tablets by PXRD as stated above.

[4] = Aqueous solubility (shake 24 hours, HPLC of filtrate); type: physicochemical; conditions: doubly distilled water, 22° C.
Protocol: About 40 mg of a sample (obtained by way of the procedure described in Example 2 above) was dispersed in 0.25 mL of doubly distilled water. The suspension was shaken at 22° C. for 24 hours. Afterwards, a fast solid/liquid-separation was performed using an Eppendorf Thermomixer Comfort (400 rpm). The suspensions were filtered with Millipore Centrifugal Filter Devices (PTFE filter; 0.2 μm) in a Centrifuge Hettich EBA 12 R (15,000 g, 1 minute, 22° C.). The concentration of the sample in the filtrate was analyzed by HPLC, and the solid phase was analyzed by FT-Raman spectroscopy.

[5] = Dynamic Vapor Sorption (DVS) hygroscopicity classification; type: physicochemical; conditions: for relative humidity above which significant water uptake starts: DVS; for hygroscopicity class by DVS analysis: mass change at 85% RH compared to the starting material
Protocol: HPLC was performed on a TSP HPLC (UV3000, AS3000, P4000, SCM1000 Soft. Version 4.1); column: Waters, X Terra MS C18 4.6×100 mm, 5μ (CC01); mobile phase A: H2O+0.1% TFA; mobile phase B: acetonitrile+0.1% TFA; reference concentration: ca. 0.09 mg/mL; retention time: 6.6 minutes; gradient: 0.0 min: A:95%/B:5%; 20.0 min: A:5%/B:95%; 21.0 min: A:95%/B:5%; 30.0 min: A:95%/B:5%; flow: 1.0 mL/minute; injection volume: 10 μL; wavelength: 254 nm. Dynamic Vapor Sorption (DVS) measurements were carried out on a Sorption Measurement System SPS11-100n. The sample was placed in an aluminum crucible and the sample was allowed to equilibrate at a given RH before starting a pre-defined humidity program. (1) 2 h at 50% RH; (2) 50→0% RH (5%/h); (3) 5 h at 0% RH; (4) 0→95% RH (5%/h); (5) 5 h at 95% RH; (6) 95→50% RH (5%/h); (7) 2 h at 50% RH. Hygroscopicity was classified according to the European Pharmacopoeia (storage at 80% RH/25° C. for 24 hours). The mass change at 85% RH was used for classification, as compared to the starting material (at ambient conditions)—very hygroscopic: increase of mass ≧15%; hygroscopic: increase of mass is less than 15% and equal to or greater than 2%; slightly hygroscopic: increase of mass is less than 2% and equal to or greater than 0.2%; deliquescent: sufficient water is absorbed to form a liquid.

[6] = Storage under ambient conditions followed by FT-Raman; type: physicochemical; conditions: about a month
Protocol: FT-Raman spectra were recorded on a Bruker RFS 100 FT-Raman system with a near infrared Nd:YAG laser operating at 1064 nm and a liquid nitrogen-cooled germanium detector. 64 scans with a resolution of 2 cm^−1 were accumulated in the range from 3500 to 50 cm^−1. In general, 100 mW laser power was used.
The Raman spectrum was recorded directly after recrystallisation. All samples were then stored under ambient conditions on a shelf in a fume hood. […] This is shown in FIG. 4, where the lower spectrum accords to the earlier measurement and the upper spectrum accords to the later measurement.

[7] = system: plasma tryptase; experiment: Plasma tryptase levels in subjects with CRP above 0.9 mg/L; type: in vivo
[8] = humans; cited from earlier work
[9] = cited from earlier work
[10] = listed as Example 2, Sodium Hemihydrate
[11] = listed as Example 1, Sodium Hemihydrate
[12] = listed as potassium salt of pemirolast

SMILES: Cc1cccn2c(=O)c(-c3nnn[n-]3)cnc12.[Na+] [amorphous form of pemirolast sodium, reference compound]
physical stability (Raman spectrum changed) [6]: physically unstable
solid phase stability ([2]; 60% RH and above): crystallized
solid phase stability ([2]; dry conditions (10-20% RH)): remains amorphous

SMILES: Cc1cccn2c(=O)c(-c3nn[n-]n3)cnc12.O.O.O.O.O.O.O.[Na+] [pemirolast sodium heptahydrate, Pemirolast Sodium Heptahydrate]
solid phase stability ([2]; 60% RH, up to 4 weeks): stable
solid phase stability ([2]; 75% RH): converted partially to the new solid state form
solid phase stability ([2]; 90% RH): no signs of phase transitions were observed
solid phase stability ([2]; dry conditions (10-20% RH)): converted to the hemihydrate form
phase transitions during tabletting (PXRD) [3]: no phase transitions occurred

SMILES: Cc1cccn2c(=O)c(-c3nnn[nH]3)cnc12 [pemirolast, 9-Methyl-3-(1H-tetrazol-5-yl)-4H-pyrido[1,2-a]pyrimidin-4-one]
effect on plasma tryptase levels [7]: does not concomitantly reduce plasma tryptase levels

Second part, led by results:

solid phase stability ([2]; relative humidity of 60% and less (down to 10-20% RH), up to 4 weeks): stable
water content (Karl Fischer) on storage, unchanged ([2]; relative humidity of 60% and less, up to 4 weeks): 2.8%
phase transitions during tabletting (PXRD) [3]: no phase transitions occurred
aqueous solubility [4, 10]: 23.64 mg/mL
pH of the saturated solution [4, 10]: 8.0
relative humidity above which significant water uptake starts [5, 11]: above 80 % RH
SMILES: Cc1cccn2c(=O)c(-c3nnn[nH]3)cnc12 [pemirolast sodium hemihydrate, Pemirolast Sodium Hemihydrate]
dissolution behaviour ([1]; listed as sodium hemihydrate salt, Sodium Hemihydrate): formed large aggregates and appeared to be more difficult to dissolve
solid phase stability ([2]; 75% RH and above): converted to a previously unknown solid state form
hygroscopicity class by DVS analysis [5, 11]: hygroscopic (hygroscopic: increase of mass is less than 15% and equal to or greater than 2%)

aqueous solubility [4, 12]: 192.38 mg/mL
pH of the saturated solution [4, 12]: 9.0
relative humidity above which significant water uptake starts [5]: above 70 % RH
SMILES: Cc1cccn2c(=O)c(-c3nnn[nH]3)cnc12 [pemirolast potassium, reference compound]
plasma concentration profile [8]: sharp plasma concentration peaks
dissolution behaviour ([1]; listed as potassium salt): dissolved as soon as it was added to the dissolution medium
hygroscopicity (reported) ([9]; Pharmaceutical Interview Form): hygroscopic
aqueous solubility (reported) ([9]; source: Pharmaceutical Interview Form): 179 to 182 mg/mL
hygroscopicity class by DVS analysis [5]: very hygroscopic (very hygroscopic: increase of mass ≧15%)

— US9006431B2, “Crystalline form of pemirolast” (Cardoz AB, priority 2009, dated 2015)
